# From US10294202B2, “Pyrrolidinones as herbicides” (FMC Corporation, priority 2013, dated 2019)
# Legend:
# nutsedge, yellow = assay: Test E preemergence herbicide test; assay type: in vivo, Cyperus esculentus; parameters: key: 0 = no effect, 100 = complete control
# Description: Seeds of plant species selected from corn (Zea mays), soybean (Glycine max), velvetleaf (Abutilon theophrasti), lambsquarters (Chenopodium album), wild poinsettia (Euphorbia heterophylla), pigweed, palmer (palmer pigweed, Amaranthus palmeri), waterhemp (common waterhemp, Amaranthus rudis), surinam grass (Brachiaria decumbens), crabgrass, large (large crabgrass, Digitaria sanguinalis), crabgrass, Brazil (Brazilian crabgrass, Digitaria horizontalis), panicum, fall (fall panicum, Panicum dichotomiflorum), foxtail, giant (giant foxtail, Setaria faberii), foxtail, green (green foxtail, Setaria viridis), goosegrass (Eleusine indica), johnsongrass (Sorghum halepense), ragweed (common ragweed, Ambrosia elatior), barnyardgrass (Echinochloa crus-galli), sandbur (southern sandbur, Cenchrus echinatus), arrowleaf […] rhombifolia), ryegrass, Italian (Italian ryegrass, Lolium multiflorum), dayflower, VA (Virginia dayflower, Commelina virginica), field bindweed (Convolvulus arvensis), morningglory (Ipomoea coccinea), nightshade (eastern black nightshade, Solanum ptycanthum), kochia (Kochia scoparia), nutsedge, yellow (yellow nutsedge, Cyperus esculentus), cocklebur (common cocklebur, Xanthium strumarium), smartweed (ladysthumb smartweed, Polygonum Persicaria) and beggarticks (hairy beggarticks, Bidens pilosa), were planted into a silt loam soil and treated preemergence with test chemicals formulated in a non-phytotoxic solvent mixture which included a surfactant. Treated plants and controls were maintained in a greenhouse for 21 days, after which time all species were compared to controls and visually evaluated. Plant response ratings, summarized in Table E, are based on a scale of 0 to 100 where 0 is no effect and 100 is complete control. A dash (-) response means no test result.
# blackgrass = assay: Test D pre-/postemergence herbicide test; assay type: in vivo, Alopecurus myosuroides; conditions: for Plant response rating: Blackgrass, scale 0 to 100; for Plant response rating, Blackgrass: scale 0 to 100 (0 no effect, 100 complete control)
# Description: Seeds of plant species selected from bluegrass (annual bluegrass, Poa annua), blackgrass (Alopecurus myosuroides), canarygrass (littleseed canarygrass, Phalaris minor), chickweed (common chickweed, Stellaria media), galium (catchweed bedstraw, Galium aparine), bromegrass, downy (downy bromegrass, Bromus tectorum), field poppy (Papaver rhoeas), field violet (Viola arvensis), foxtail, green (green foxtail, Setaria viridis), deadnettle (henbit deadnettle, Lamium amplexicaule), ryegrass, Italian (Italian ryegrass, Lolium multiflorum), kochia (Kochia scoparia), lambsquarters (Chenopodium album), oilseed rape (Brassica napus), pigweed (Amaranthus retroflexus), chamomile (scentless chamomile, Matricaria inodora), Russian thistle (Salsola kali), speedwell (bird's-eye speedwell, Veronica persica), barley, spring (spring barley, Hordeum vulgare), wheat, spring (spring wheat, Triticum aestivum), buckwheat, wild (wild buckwheat, Polygonum convolvulus), mustard, wild (wild mustard, Sinapis arvensis), oat, wild (wild oat, Avena fatua), radish, wild (wild radish, Raphanus raphanistrum), […]), barley, winter (winter barley, Hordeum vulgare), and wheat, winter (winter wheat, Triticum aestivum) were planted into a silt loam soil and treated preemergence with test chemicals formulated in a non-phytotoxic solvent mixture which included a surfactant. At the same time, these species were planted in pots containing Redi-Earth® planting medium (Scotts Company, 14111 Scottslawn Road, Marysville, Ohio 43041) comprising spaghnum peat moss, vermiculite, wetting agent and starter nutrients and treated with postemergence applications of the test chemicals formulated in the same manner. Plants ranged in height from 2 to 18 cm (1- to 4-leaf stage). Treated plants and controls were maintained in a controlled growth environment for 7 to 21 days after which time all species were compared to controls and visually evaluated. Plant response ratings, summarized in Table D, are based on a scale of 0 to 100 where 0 is no effect and 100 is complete control. A dash (-) response means no test result.
# field violet = assay: Test D pre-/postemergence herbicide test; assay type: in vivo, Viola arvensis; conditions: for Plant response rating: Field Violet, scale 0 to 100; for Plant response rating, Field Violet: scale 0 to 100 (0 no effect, 100 complete control)
# Outline: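 Test chemicals, formulated in a non-phytotoxic solvent mixture with surfactant, are sprayed preemergence onto seeds in silt loam and postemergence onto plants of 2–18 cm. Plants are held in a controlled growth environment for 7 to 21 days, then rated visually versus controls (0–100).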
# bromegrass, downy = assay: Test C pre-/postemergence herbicide test; assay type: in vivo, Bromus tectorum
# Outline: (§1)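 Compound solutions contained surfactant in a non-phytotoxic solvent. These were sprayed onto pots of loam/sand sown with seeds, and onto young plants (2 to 18 cm, 1- to 4-leaf) in sphagnum peat–vermiculite mix. Visual injury scores (0 none, 100 complete control) were recorded after 13 to 15 days.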
# surinam grass = assay: Test C pre-/postemergence herbicide test; assay type: in vivo, Brachiaria decumbens
# Description: Seeds of plant species selected from blackgrass (Alopecurus myosuroides), ryegrass, Italian (Italian ryegrass, Lolium multiflorum), wheat (winter wheat, Triticum aestivum), galium (catchweed bedstraw, Galium aparine), corn (Zea mays), crabgrass, large (large crabgrass, Digitaria sanguinalis), foxtail, giant (giant foxtail, Setaria faberii), johnsongrass (Sorghum halepense), lambsquarters (Chenopodium album), morningglory (Ipomoea coccinea), nutsedge, yellow (yellow nutsedge, Cyperus esculentus), pigweed (Amaranthus retroflexus), ragweed (common ragweed, Ambrosia elatior), soybean (Glycine max), barnyardgrass (Echinochloa crus-galli), oilseed rape (Brassica napus), waterhemp (common waterhemp, Amaranthus rudis), kochia (Kochia scoparia), oat, wild (wild oat, Avena fatua), surinam grass (Brachiaria decumbens), foxtail, green (green foxtail, Setaria viridis), goosegrass (Eleusine indica), bromegrass, downy (downy bromegrass, Bromus tectorum), nightshade (eastern black nightshade, Solanum ptycanthum), cocklebur (common cocklebur, Xanthium strumarium), cupgrass, woolly (woolly cupgrass, Eriochloa villosa), bermudagrass (Cynodon dactylon), sunflower, (common oilseed sunflower, Helianthus annuus), Russian thistle (Salsola kali) and velvetleaf (Abutilon theophrasti) were planted into a blend of loam soil and sand and treated preemergence with test chemicals formulated in a non-phytotoxic solvent mixture which included a surfactant. At the same time, plants selected from these crop and weed species and also barley (winter barley, Hordeum vulgare), […]), chickweed (common chickweed, Stellaria media), deadnettle (henbit deadnettle, Lamium amplexicaule), and canarygrass (littleseed canarygrass, Phalaris minor) were planted in pots containing Redi-Earth® planting medium (Scotts Company, 14111 Scottslawn Road, Marysville, Ohio 43041) comprising spaghnum peat moss, vermiculite, wetting agent and starter nutrients and treated with postemergence applications of test chemicals formulated in the same manner. Plants ranged in height from 2 to 18 cm (1- to 4-leaf stage) for postemergence treatments. Treated plants and controls were maintained in a greenhouse for 13 to 15 days, after which time all species were compared to controls and visually evaluated. Plant response ratings, summarized in Table C, are based on a scale of 0 to 100 where 0 is no effect and 100 is complete control. A dash (-) response means no test result.
# goosegrass = assay: Test C pre-/postemergence herbicide test; assay type: in vivo, Eleusine indica
# Outline: as §1
# [1] = Postemergence, 31 g ai/ha, scale 0 (no effect) to 100 (complete control)
# [2] = Postemergence, 62 g ai/ha, scale 0 to 100 (0 no effect, 100 complete control)
# [3] = Postemergence, 125 g ai/ha, scale 0 to 100 (0 no effect, 100 complete control)
# [4] = Postemergence, 250 g ai/ha, scale 0 to 100 (0 no effect, 100 complete control)
# [5] = Preemergence, 62 g ai/ha, scale 0 to 100
# [6] = Preemergence, 125 g ai/ha, scale 0 to 100 (0 no effect, 100 complete control)
# [7] = Preemergence, 31 g ai/ha, scale 0 to 100 (0 no effect, 100 complete control)
compound,measurement,setting,value
O=C1NCC(c2ccc(C(F)(F)F)cc2)C1C(=O)Nc1cccc(F)c1F (racemic) [Compound 202],"Plant response rating, Nutsedge, Yellow","nutsedge, yellow; 31 g ai/ha",0
same,"Plant response rating, Nutsedge, Yellow","nutsedge, yellow; 62 g ai/ha",0
same,"Plant response rating, Nutsedge, Yellow","nutsedge, yellow; 125 g ai/ha",0
same,"Plant response rating, Nutsedge, Yellow","nutsedge, yellow; 250 g ai/ha",0
same,Plant response rating,"blackgrass; Postemergence, 31 g ai/ha",0
same,Plant response rating,"blackgrass; Postemergence, 62 g ai/ha",5
same,Plant response rating,"blackgrass; Postemergence, 125 g ai/ha",10
same,Plant response rating,"blackgrass; Postemergence, 250 g ai/ha",40
same,"Plant response rating, Blackgrass","blackgrass; Preemergence, 62 g ai/ha",35
same,"Plant response rating, Blackgrass","blackgrass; Preemergence, 31 g ai/ha",30
same,Plant response rating,"blackgrass; Preemergence, 125 g ai/ha",65
same,Plant response rating,"blackgrass; Preemergence, 250 g ai/ha",75
same,Plant response rating,"field violet; Postemergence, 31 g ai/ha",40
same,Plant response rating,"field violet; Postemergence, 62 g ai/ha",30
same,Plant response rating,"field violet; Postemergence, 125 g ai/ha",30
same,Plant response rating,"field violet; Postemergence, 250 g ai/ha",30
same,"Plant response rating, Field Violet","field violet; Preemergence, 62 g ai/ha",0
same,"Plant response rating, Field Violet","field violet; Preemergence, 31 g ai/ha",0
same,Plant response rating,"field violet; Preemergence, 125 g ai/ha",10
same,Plant response rating,"field violet; Preemergence, 250 g ai/ha",15
O=C1NCC(c2ccc(OC(F)F)cc2)C1C(=O)Nc1cccc(F)c1F (racemic) [Compound 350],"Plant response rating, Nutsedge, Yellow","nutsedge, yellow; 31 g ai/ha",0
same,"Plant response rating, Nutsedge, Yellow","nutsedge, yellow; 62 g ai/ha",0
same,"Plant response rating, Nutsedge, Yellow","nutsedge, yellow; 125 g ai/ha",0
same,"Plant response rating, Nutsedge, Yellow","nutsedge, yellow; 250 g ai/ha",15
O=C1NCC(c2ccc(Cl)c(F)c2)C1C(=O)Nc1cccc(F)c1F (centres unmarked) [Compound 52],"Plant response rating, Bromegrass, Downy","bromegrass, downy; [1]",0
same,"Plant response rating, Bromegrass, Downy","bromegrass, downy; [2]",0
same,"Plant response rating, Bromegrass, Downy","bromegrass, downy; [3]",0
same,"Plant response rating, Bromegrass, Downy","bromegrass, downy; [4]",10
same,"Plant response rating, Bromegrass, Downy","bromegrass, downy; [5]",0
same,"Plant response rating, Bromegrass, Downy","bromegrass, downy; [6]",0
same,"Bromegrass, Downy plant response rating","bromegrass, downy; [7]",0
same,"Plant response rating, Bromegrass, Downy","bromegrass, downy; Preemergence, 250 g ai/ha, scale 0 to 100 (0 no effect, 100 complete control)",0
same,Plant response rating,"blackgrass; Postemergence, 16 g ai/ha",0
same,Plant response rating,"blackgrass; Postemergence, 31 g ai/ha",0
same,Plant response rating,"blackgrass; Postemergence, 62 g ai/ha",0
same,Plant response rating,"blackgrass; Postemergence, 125 g ai/ha",0
same,Plant response rating,"blackgrass; Postemergence, 250 g ai/ha",0
same,"Plant response rating, Blackgrass","blackgrass; Preemergence, 62 g ai/ha",0
same,"Plant response rating, Blackgrass","blackgrass; Preemergence, 16 g ai/ha",0
same,"Plant response rating, Blackgrass","blackgrass; Preemergence, 31 g ai/ha",0
same,Plant response rating,"blackgrass; Preemergence, 125 g ai/ha",0
same,Plant response rating,"blackgrass; Preemergence, 250 g ai/ha",0
same,"Plant response rating, Surinam Grass",surinam grass; [1],0
same,"Plant response rating, Surinam Grass",surinam grass; [2],5
same,"Plant response rating, Surinam Grass",surinam grass; [4],30
same,"Plant response rating, Surinam Grass",surinam grass; [5],35
same,"Plant response rating, Surinam Grass",surinam grass; [6],45
same,Plant response rating,"field violet; Postemergence, 16 g ai/ha",0
same,Plant response rating,"field violet; Postemergence, 31 g ai/ha",0
same,Plant response rating,"field violet; Postemergence, 62 g ai/ha",0
same,Plant response rating,"field violet; Postemergence, 125 g ai/ha",0
same,Plant response rating,"field violet; Postemergence, 250 g ai/ha",0
same,"Plant response rating, Goosegrass",goosegrass; [1],0
same,"Plant response rating, Goosegrass",goosegrass; [2],0
same,"Plant response rating, Goosegrass",goosegrass; [3],20
same,"Plant response rating, Goosegrass",goosegrass; [4],20
same,"Plant response rating, Goosegrass",goosegrass; [5],20
same,"Plant response rating, Goosegrass",goosegrass; [6],60
same,Goosegrass plant response rating,goosegrass; [7],10
"O=C1NCC(c2ccc(C(F)(F)F)cc2)C1C(=O)Nc1cccc(F)c1F (centres unmarked) [Compound 80, N-(2,3-difluorophenyl)-2-oxo-4-[4-(trifluoromethyl)phenyl]-3-pyrrolidinecarboxamide]","Plant response rating, Nutsedge, Yellow","nutsedge, yellow; 16 g ai/ha",0
same,"Plant response rating, Nutsedge, Yellow","nutsedge, yellow; 31 g ai/ha",0
same,"Plant response rating, Nutsedge, Yellow","nutsedge, yellow; 62 g ai/ha",0
same,"Plant response rating, Nutsedge, Yellow","nutsedge, yellow; 125 g ai/ha",0
same,"Plant response rating, Nutsedge, Yellow","nutsedge, yellow; 250 g ai/ha",0
same,Plant response rating,"blackgrass; Postemergence, 31 g ai/ha",5
same,Plant response rating,"blackgrass; Postemergence, 62 g ai/ha",5
same,Plant response rating,"blackgrass; Postemergence, 125 g ai/ha",5
same,Plant response rating,"blackgrass; Postemergence, 250 g ai/ha",5
same,"Plant response rating, Blackgrass","blackgrass; Preemergence, 62 g ai/ha",10
same,"Plant response rating, Blackgrass","blackgrass; Preemergence, 31 g ai/ha",5
same,Plant response rating,"blackgrass; Preemergence, 125 g ai/ha",20
same,Plant response rating,"blackgrass; Preemergence, 250 g ai/ha",25
same,Plant response rating,"field violet; Postemergence, 31 g ai/ha",15
same,Plant response rating,"field violet; Postemergence, 62 g ai/ha",20
same,Plant response rating,"field violet; Postemergence, 125 g ai/ha",15
same,Plant response rating,"field violet; Postemergence, 250 g ai/ha",25
same,"Plant response rating, Field Violet","field violet; Preemergence, 62 g ai/ha",20
same,"Plant response rating, Field Violet","field violet; Preemergence, 31 g ai/ha",0
same,Plant response rating,"field violet; Preemergence, 125 g ai/ha",20
same,Plant response rating,"field violet; Preemergence, 250 g ai/ha",25
"O=C1NC[C@H](c2cccc(C(F)(F)F)c2)[C@H]1C(=O)Nc1ccccc1F [Compound 204, (3R,4S)—N-(2-fluorophenyl)-2-oxo-4-[3-(trifluoromethyl)phenyl]-3-pyrrolidinecarboxamide]","Plant response rating, Nutsedge, Yellow","nutsedge, yellow; 31 g ai/ha",0
same,"Plant response rating, Nutsedge, Yellow","nutsedge, yellow; 62 g ai/ha",0
same,"Plant response rating, Nutsedge, Yellow","nutsedge, yellow; 125 g ai/ha",0
same,"Plant response rating, Nutsedge, Yellow","nutsedge, yellow; 250 g ai/ha",0
same,"Plant response rating, Blackgrass","blackgrass; Preemergence, 62 g ai/ha",10
same,"Plant response rating, Blackgrass","blackgrass; Preemergence, 125 g ai/ha",40
same,"Plant response rating, Blackgrass","blackgrass; Preemergence, 31 g ai/ha",5
same,Plant response rating,"blackgrass; Preemergence, 250 g ai/ha",65
same,"Plant response rating, Field Violet","field violet; Preemergence, 62 g ai/ha",15
same,"Plant response rating, Field Violet","field violet; Preemergence, 125 g ai/ha",25
same,"Plant response rating, Field Violet","field violet; Preemergence, 31 g ai/ha",10
same,Plant response rating,"field violet; Preemergence, 250 g ai/ha",25
